From patent US20260193319A1, “PLATELET-BINDING PROTEINS AND CONJUGATES THEREOF, PARTICLES COMPRISING THEM AND USES THEREOF” (Haima Therapeutics, LLC, priority 2022, published 2026)
Several values for one entry are separate records, joined by “and”; a condition that tells them apart may be missing. Equal entries are not always repeated. Where a SMILES comes first, the peptide text is derived from it. Bridges are numbered along the chain shown (N, C = ends). [ ]: non-standard residue; d: D form. Pra = C#CC[C@H](N)C(=O)O; βAla = NCCC(=O)O

Tests used:
[1] = target: GPIIb/IIIa on active human platelets (human) (UniProt P08514); assay: cell-based or functional assay
Chain of UniProt P08514 (P08514 32-1039, chain 1 of 2): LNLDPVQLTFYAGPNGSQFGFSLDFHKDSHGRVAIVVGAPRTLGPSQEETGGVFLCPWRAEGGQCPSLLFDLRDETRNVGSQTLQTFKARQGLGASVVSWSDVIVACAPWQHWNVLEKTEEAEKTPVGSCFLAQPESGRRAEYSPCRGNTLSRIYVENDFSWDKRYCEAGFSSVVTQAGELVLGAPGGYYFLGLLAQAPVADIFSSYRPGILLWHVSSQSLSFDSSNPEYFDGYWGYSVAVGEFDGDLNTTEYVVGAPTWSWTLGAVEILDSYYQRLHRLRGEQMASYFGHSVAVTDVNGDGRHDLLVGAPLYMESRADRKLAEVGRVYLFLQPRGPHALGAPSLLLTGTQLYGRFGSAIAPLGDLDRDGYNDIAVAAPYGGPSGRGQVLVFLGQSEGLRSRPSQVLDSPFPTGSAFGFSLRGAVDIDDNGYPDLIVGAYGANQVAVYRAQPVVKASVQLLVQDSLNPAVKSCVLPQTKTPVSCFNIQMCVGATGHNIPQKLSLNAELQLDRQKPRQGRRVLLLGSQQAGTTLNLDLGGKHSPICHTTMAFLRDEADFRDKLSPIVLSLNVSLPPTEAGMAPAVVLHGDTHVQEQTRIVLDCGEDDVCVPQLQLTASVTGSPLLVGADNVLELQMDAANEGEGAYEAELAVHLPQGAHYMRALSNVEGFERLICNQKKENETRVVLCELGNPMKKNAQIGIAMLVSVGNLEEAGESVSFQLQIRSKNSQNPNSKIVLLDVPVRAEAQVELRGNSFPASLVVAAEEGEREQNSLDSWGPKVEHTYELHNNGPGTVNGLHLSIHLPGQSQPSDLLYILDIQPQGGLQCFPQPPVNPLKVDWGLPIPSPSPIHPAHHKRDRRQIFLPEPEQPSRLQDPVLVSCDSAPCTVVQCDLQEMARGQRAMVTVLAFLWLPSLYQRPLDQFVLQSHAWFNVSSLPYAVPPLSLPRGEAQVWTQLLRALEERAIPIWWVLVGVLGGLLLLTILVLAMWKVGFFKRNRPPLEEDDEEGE
Chain of UniProt P08514 (P05106 27-788, chain 2 of 2, further chain): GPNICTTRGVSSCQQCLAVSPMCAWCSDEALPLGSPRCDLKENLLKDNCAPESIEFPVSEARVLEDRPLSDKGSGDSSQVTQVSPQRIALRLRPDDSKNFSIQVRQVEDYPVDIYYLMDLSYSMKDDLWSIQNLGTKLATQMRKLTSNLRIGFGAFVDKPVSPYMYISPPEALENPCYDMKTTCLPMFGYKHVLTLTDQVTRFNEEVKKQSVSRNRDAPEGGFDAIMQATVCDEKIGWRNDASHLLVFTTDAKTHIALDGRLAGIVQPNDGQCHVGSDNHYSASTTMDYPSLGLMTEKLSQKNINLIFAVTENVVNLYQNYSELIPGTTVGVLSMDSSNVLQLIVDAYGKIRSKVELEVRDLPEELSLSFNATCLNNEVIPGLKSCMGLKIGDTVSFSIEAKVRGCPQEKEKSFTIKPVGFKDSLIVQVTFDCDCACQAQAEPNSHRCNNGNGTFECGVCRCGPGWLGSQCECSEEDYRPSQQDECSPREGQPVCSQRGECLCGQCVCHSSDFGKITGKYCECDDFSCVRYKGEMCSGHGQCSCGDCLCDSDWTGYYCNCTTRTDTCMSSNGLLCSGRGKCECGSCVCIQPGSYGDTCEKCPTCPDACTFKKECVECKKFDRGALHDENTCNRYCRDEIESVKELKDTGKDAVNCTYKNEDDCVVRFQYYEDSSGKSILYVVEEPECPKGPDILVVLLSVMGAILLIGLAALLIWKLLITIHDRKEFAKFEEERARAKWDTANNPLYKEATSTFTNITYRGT

[2] = test system: human platelets (PRP stimulated with ADP); assay: Peptide inhibition of platelet aggregation, light transmission aggregometry in human PRP/ADP; format: cell-based; conditions: for Peptide Inhibition of Platelet Aggregation, pass/fail result: criterion: inhibition of platelet aggregation, FMP2 IC50 ≤ FMP1 IC50; for IC50: human PRP/ADP, final aggregation, log-dose vs response fit, approximate
Text: The properties of the FMP2 peptide and peptide-decorated particles (synthetic platelet) were compared to those of the old FMP1 peptide. First, Chang et al. have shown that cyclic RGD peptides are able to selectively bind to activated platelets and prevent human platelet aggregation as measured via platelet light transmission aggregometry. This protocol was adapted and performed to compare the IC50 values of FMP1 and FMP2. Specifically, human whole blood was drawn from healthy, aspirin refraining donors via venipuncture into syringe containing 3.8% w/v sodium citrate. Platelet rich plasma (PRP) was obtained by centrifugation of whole blood in a tabletop centrifuge at 150×g for 15 minutes. Platelet aggregation experiments were performed with 225 μl of 25% o (v/v) diluted PRP stimulated with 25 μl of 10 μM adenosine 5′-diphosphate (ADP) (or saline as a negative control) on a Bio/Data PAP-8E Platelet Aggregation Profiler. 20 μl of saline containing 0.0001 μM to 250 μM of FMP1 or FMP2 (at each order of magnitude) were added to the 25% o diluted PRP, and final aggregation percentage was recorded. In GraphPad Prism®, a non-linear fit of log-dose vs. response was applied to the data, and the IC50 for each peptide was determined by calculating the intersection point at y=50.

| Molecule | IC50 of inhibition of ADP-stimulated human platelet aggregation (light transmission aggregometry, diluted PRP, final aggregation %) [1] [µM] | concentrations inhibiting platelet aggregation, FMP2 relative to FMP1 ([2]; comparison of IC50) | Peptide Inhibition of Platelet Aggregation, pass/fail result [2] | IC50 [2] |
| --- | --- | --- | --- | --- |
| FMP2, cyclo-(CNPRGD{Tyr(OEt)}R-β-A) trifluoroacetate salt (peptide) | 0.13 | – | – | – |
| CCOc1ccc(C[C@@H]2NC(=O)[C@H](CC(=O)O)NC(=O)CNC(=O)[C@H](CCCNC(=N)N)NC(=O)[C@@H]3CCCN3C(=O)[C@H](CC(N)=O)NC(=O)[C@H](CS)NC(=O)CCNC(=O)[C@H](CCCNC(=N)N)NC2=O)cc1 [FMP2, cyclo-(CNPRGD{Tyr(OEt)}R-β-A)] (cyclo(CNPRGDY(Et)R[βAla])) | – | over three orders of magnitude below FMP1 | Pass | ~0.13 µM and 0.13 µM |
| C#CC[C@H](N)C(=O)N[C@H]1CSSC[C@@H](C(=O)O)NC(=O)[C@H](CCCNC(=N)N)NC(=O)[C@H](Cc2ccc(OCC)cc2)NC(=O)[C@H](CC(=O)O)NC(=O)CNC(=O)[C@H](CCCNC(=N)N)NC(=O)[C@@H]2CCCN2C(=O)[C@H](CC(N)=O)NC1=O [FMP1, cyclo-{Pra}CNPRGD{Tyr(OEt)}RC, reference compound] (H-[Pra]CNPRGDY(Et)RC-OH; disulfide 2-10; N-terminus and C-terminus assumed) | – | – | Pass | ~537 µM and 537 µM |
| FMP1, cyclo-{Pra}CNPRGD{Tyr(OEt)}RC trifluoroacetate salt (peptide) | 537 | – | – | – |
